Read-outs that look alike come from different tables or passages of the source.
Columns and labels:
PRC2 containing wt EZH2 = PRC2 containing wt EZH2 (Homo sapiens (Human), UniProt Q15910); assay: EZH2 biochemical assay (IC50), 3H-SAM incorporation into biotinylated H3 peptide; details: 30 pM PRC2 containing wt EZH2; 3-5 h pre-incubation; read-out: EZH2 (IC50)
Method in brief: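 Activity was measured as ³H-methyl transfer to a biotinylated H3K27me1 peptide over 18-22 h at room temperature, with capture on streptavidin flash plates. The 30 pM wt-EZH2 PRC2 complex was first pre-incubated 3-5 h with compound, 450 nM SAM/450 nM ³H-SAM and 2 µM H3K27me3 activator (pH 8.5, 0.8% DMSO). Four-parameter fits gave IC50.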

[1] = test system: H3K27me3 mark in HeLa cells (EZH2); assay: H3K27me3 Alpha Hela Assay (AlphaLISA); format: cell-based; details: HeLa cells, 72 hrs, read-out: EZH2 Cell H3K27me3 Alpha HeLa (EC50 K27me3)
Method in brief: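 HeLa cells (1,000/well) treated with ten 3-fold compound doses for 72 h at 37 °C; lysates extracted and H3K27me3 detected by AlphaLISA with anti-K27me3 acceptor beads, biotinylated anti-H3 (3 nM) and streptavidin donor beads. EC50 from DMSO-normalized dose-response curves; duplicate plate assessed viability.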

PRC2 containing wt EZH2, sequence (Q15910 whole entry): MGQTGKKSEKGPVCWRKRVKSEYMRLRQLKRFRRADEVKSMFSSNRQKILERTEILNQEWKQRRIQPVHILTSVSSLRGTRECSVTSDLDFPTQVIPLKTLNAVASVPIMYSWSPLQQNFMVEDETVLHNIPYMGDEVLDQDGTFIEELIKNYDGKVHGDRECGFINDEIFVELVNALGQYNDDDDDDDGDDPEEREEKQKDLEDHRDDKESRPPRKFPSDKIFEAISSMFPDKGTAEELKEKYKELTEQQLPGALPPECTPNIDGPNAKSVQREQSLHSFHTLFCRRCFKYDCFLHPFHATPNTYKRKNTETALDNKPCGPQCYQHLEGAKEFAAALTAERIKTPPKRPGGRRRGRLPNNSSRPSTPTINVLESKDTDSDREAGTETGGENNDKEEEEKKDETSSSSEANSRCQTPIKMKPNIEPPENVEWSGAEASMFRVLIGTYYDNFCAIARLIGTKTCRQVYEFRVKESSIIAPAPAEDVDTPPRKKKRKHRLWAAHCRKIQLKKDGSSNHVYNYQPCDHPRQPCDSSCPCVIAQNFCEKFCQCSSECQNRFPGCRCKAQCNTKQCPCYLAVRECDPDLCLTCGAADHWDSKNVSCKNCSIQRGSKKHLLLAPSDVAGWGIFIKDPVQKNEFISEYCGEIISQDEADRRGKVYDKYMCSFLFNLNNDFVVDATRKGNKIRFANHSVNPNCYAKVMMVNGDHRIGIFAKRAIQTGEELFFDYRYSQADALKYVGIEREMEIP
PRC2 containing wt EZH2, sequence (O75530 whole entry partner): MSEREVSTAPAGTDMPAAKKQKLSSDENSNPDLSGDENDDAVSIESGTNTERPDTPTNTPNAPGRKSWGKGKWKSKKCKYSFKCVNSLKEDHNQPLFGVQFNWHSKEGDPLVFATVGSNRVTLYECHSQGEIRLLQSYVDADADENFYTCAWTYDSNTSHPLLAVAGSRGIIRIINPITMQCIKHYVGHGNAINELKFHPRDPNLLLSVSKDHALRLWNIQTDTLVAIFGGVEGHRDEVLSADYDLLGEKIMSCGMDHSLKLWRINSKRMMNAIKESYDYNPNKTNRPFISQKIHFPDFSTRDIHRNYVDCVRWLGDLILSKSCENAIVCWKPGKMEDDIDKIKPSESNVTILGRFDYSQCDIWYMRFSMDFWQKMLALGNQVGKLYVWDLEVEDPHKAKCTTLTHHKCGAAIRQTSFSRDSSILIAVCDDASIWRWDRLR
PRC2 containing wt EZH2, sequence (Q15022 whole entry partner): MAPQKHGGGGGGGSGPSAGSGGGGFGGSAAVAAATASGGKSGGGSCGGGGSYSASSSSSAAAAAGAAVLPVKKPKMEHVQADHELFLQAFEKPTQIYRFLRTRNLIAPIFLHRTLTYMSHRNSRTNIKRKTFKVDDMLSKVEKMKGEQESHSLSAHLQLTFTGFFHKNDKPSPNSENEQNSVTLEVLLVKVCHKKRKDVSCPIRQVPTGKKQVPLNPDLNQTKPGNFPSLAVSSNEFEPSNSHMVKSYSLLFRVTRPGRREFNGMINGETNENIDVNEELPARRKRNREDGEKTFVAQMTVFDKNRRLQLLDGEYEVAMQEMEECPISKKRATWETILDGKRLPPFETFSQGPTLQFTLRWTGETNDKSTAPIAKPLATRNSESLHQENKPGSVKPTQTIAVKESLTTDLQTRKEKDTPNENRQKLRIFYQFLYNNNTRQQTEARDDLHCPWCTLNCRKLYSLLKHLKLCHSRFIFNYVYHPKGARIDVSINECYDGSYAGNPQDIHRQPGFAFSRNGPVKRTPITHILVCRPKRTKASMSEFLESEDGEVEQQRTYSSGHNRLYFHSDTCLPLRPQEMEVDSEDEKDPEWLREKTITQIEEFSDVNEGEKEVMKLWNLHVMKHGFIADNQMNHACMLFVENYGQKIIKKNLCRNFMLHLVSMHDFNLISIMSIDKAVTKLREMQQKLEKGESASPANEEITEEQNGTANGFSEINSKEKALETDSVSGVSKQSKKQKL
PRC2 containing wt EZH2, sequence (Q09028 whole entry partner): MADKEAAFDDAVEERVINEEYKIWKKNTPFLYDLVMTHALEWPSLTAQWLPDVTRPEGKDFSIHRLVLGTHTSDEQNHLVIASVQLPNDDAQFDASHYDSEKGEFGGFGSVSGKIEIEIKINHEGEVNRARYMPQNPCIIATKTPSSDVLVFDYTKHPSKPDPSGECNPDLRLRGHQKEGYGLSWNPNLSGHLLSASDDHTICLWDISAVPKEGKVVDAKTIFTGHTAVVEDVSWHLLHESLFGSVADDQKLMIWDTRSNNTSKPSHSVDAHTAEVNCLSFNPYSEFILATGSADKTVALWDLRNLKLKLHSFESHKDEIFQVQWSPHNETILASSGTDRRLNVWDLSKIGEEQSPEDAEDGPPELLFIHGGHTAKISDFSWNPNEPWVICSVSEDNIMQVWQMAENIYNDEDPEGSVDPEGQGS
PRC2 containing wt EZH2, sequence (Q6ZN18 whole entry partner): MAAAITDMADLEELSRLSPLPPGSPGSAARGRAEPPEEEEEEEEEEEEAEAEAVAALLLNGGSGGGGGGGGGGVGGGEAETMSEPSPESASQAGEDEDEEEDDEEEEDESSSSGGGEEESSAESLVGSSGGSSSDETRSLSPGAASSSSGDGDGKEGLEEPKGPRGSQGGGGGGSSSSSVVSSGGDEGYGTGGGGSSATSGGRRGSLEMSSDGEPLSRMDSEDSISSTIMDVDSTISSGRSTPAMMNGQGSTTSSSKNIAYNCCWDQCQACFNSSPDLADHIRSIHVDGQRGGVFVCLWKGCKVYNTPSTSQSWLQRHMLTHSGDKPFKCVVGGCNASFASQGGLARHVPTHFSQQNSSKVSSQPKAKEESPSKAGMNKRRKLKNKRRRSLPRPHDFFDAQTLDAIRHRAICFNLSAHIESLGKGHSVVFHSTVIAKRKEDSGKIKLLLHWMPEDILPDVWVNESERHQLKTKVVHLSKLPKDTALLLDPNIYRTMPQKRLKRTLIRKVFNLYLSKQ

SMILES | IC50 (PRC2 containing wt EZH2) [nM] | EC50 ([1]; Homo sapiens, HeLa, 72 h) [nM] | EC50 [1] [nM]
CSc1cc(C)[nH]c(=O)c1CNC(=O)c1c(C)n([C@H](C)C2CCC(NC3(C(F)(F)F)COC3)CC2)c2ncccc12 (single isomer, unassigned) [163 (isomer 1)] | < 0.5 | < 10 | –
CSc1cc(C)[nH]c(=O)c1CNC(=O)c1c(C)n([C@H](C)C2CCC(NC3(C(F)(F)F)COC3)CC2)c2ncccc12 (single isomer, unassigned) [163 (isomer 2)] | 0.5 to 5 | – | 10 to 100
CSc1cc(C)[nH]c(=O)c1CNC(=O)c1c(C)n([C@H](C)C2CCC(NC3(C(F)(F)F)COC3)CC2)c2ncncc12 (single isomer, unassigned) [164 (isomer 1)] | < 0.5 | < 10 | –
CSc1cc(C)[nH]c(=O)c1CNC(=O)c1c(C)n([C@H](C)C2CCC(NC3(C(F)(F)F)COC3)CC2)c2ncncc12 (single isomer, unassigned) [164 (isomer 2)] | 0.5 to 5 | – | 10 to 100
CSc1cc(C)[nH]c(=O)c1CNC(=O)c1c(C)n([C@H](C)C2CCC(N3CC(OC4CC4)C3)CC2)c2ncccc12 (single isomer, unassigned) [Example 30] | < 0.5 | < 10 | –
CSc1cc(C)[nH]c(=O)c1CNC(=O)c1c(C)n([C@H](C)C2CCC(NC3(C(F)(F)F)COC3)CC2)c2ccccc12 (single isomer, unassigned) [Example 130] | < 0.5 | < 10 | –
CSc1cc(C)[nH]c(=O)c1CNC(=O)c1c(C)n([C@H](C)[C@H]2OC[C@@H](N3CCC34COC4)CO2)c2ccccc12 (single isomer, unassigned; isomer 1) [150 (isomer 1)] | 0.5 to 5 | – | > 100
CSc1cc(C)[nH]c(=O)c1CNC(=O)c1c(C)n([C@@H](C)[C@H]2OC[C@@H](N3CCC34COC4)CO2)c2ccccc12 (single isomer, unassigned; isomer 1) [151 (isomer 1)] | 0.5 to 5 | – | > 100
CSc1cc(C)[nH]c(=O)c1CNC(=O)c1c(C)n([C@H](C)[C@H]2OC[C@H](N3CCC34COC4)CO2)c2ccccc12 (single isomer, unassigned; isomer 2) [150 (isomer 2)] | < 0.5 | – | < 10
CSc1cc(C)[nH]c(=O)c1CNC(=O)c1c(C)n([C@@H](C)[C@H]2OC[C@H](N3CCC34COC4)CO2)c2ccccc12 (single isomer, unassigned; isomer 2) [151 (isomer 2)] | > 5 | – | > 100
CSc1cc(C)[nH]c(=O)c1CNC(=O)c1c(C)n([C@H](C)C23CC(NC4COC4)(C2)C3)c2ccccc12 [Example 8, (R)-2-methyl-N-((6-methyl-4-(methylthio)-2-oxo-1,2-dihydropyridin-3-yl)methyl)-1-(1-(3-(oxetan-3-ylamino)bicyclo[1.1.1]pentan-1-yl)ethyl)-1H-indole-3-carboxamide] | < 0.5 | < 10 | –
CSc1cc(C)[nH]c(=O)c1CNC(=O)c1c(C)n([C@H](C)C23CC(N(C)C4COC4)(C2)C3)c2ccccc12 [Example 9, (R)-2-methyl-1-(1-(3-(methyl(oxetan-3-yl)amino)bicyclo[1.1.1]pentan-1-yl)ethyl)-N-((6-methyl-4-(methylthio)-2-oxo-1,2-dihydropyridin-3-yl)methyl)-1H-indole-3-carboxamide] | < 0.5 | < 10 | –
CSc1cc(C)[nH]c(=O)c1CNC(=O)c1c(C)n([C@H](C)C23CC(N(C)CC(F)(F)F)(C2)C3)c2ccccc12 [Example 10, (R)-2-methyl-1-(1-(3-(methyl(2,2,2-trifluoroethyl)amino)bicyclo[1.1.1]pentan-1-yl)ethyl)-N-((6-methyl-4-(methylthio)-2-oxo-1,2-dihydropyridin-3-yl)methyl)-1H-indole-3-carboxamide] | < 0.5 | < 10 | –
